The NIST ThermoML archive (doi:10.1016/j.fluid.2012.09.026)
“And” between values parts separate entries of the source, which are not always exact repeats. Identical values can stand only once. Numbers after ± are expanded uncertainties.

Settings: for vapor or sublimation pressure: Closed cell (Static) method

For `CCCCO` [butan-1-ol], the “vapor or sublimation pressure” value (496.62 K, Liquid) was 1529 ± 3 kPa, the “vapor or sublimation pressure” value (497.54 K, Liquid) was 1549 ± 4 kPa and the “vapor or sublimation pressure” value (497.6 K, Liquid) was 1555 ± 3 kPa. The “vapor or sublimation pressure” value (497.65 K, Liquid) was 1555 ± 3 kPa, the “vapor or sublimation pressure” value (497.7 K, Liquid) was 1559 ± 3 kPa and the “vapor or sublimation pressure” value (497.97 K, Liquid) was 1559 ± 4 kPa. The “vapor or sublimation pressure” value (506.74 K, Liquid) was 1834 ± 4 kPa, the “vapor or sublimation pressure” value (506.84 K, Liquid) was 1834 ± 4 kPa and the “vapor or sublimation pressure” value (507.01 K, Liquid) was 1854 ± 4 kPa and 1844 ± 4 kPa. For the same molecule, the “vapor or sublimation pressure” value (507.23 K, Liquid) was 1844 ± 4 kPa, the “vapor or sublimation pressure” value (507.25 K, Liquid) was 1844 ± 4 kPa and the “vapor or sublimation pressure” value (507.3 K, Liquid) was 1854 ± 5 kPa. For the same molecule, the “vapor or sublimation pressure” value (518.64 K, Liquid) was 2241 ± 4 kPa, the “vapor or sublimation pressure” value (518.91 K, Liquid) was 2246 ± 4 kPa and the “vapor or sublimation pressure” value (518.99 K, Liquid) was 2248 ± 4 kPa. For the same molecule, the “vapor or sublimation pressure” value (519.06 K, Liquid) was 2248 ± 4 kPa, the “vapor or sublimation pressure” value (519.2 K, Liquid) was 2252 ± 4 kPa and the specific volume (520 K, Gas, isochoric method) was 0.01653 ± 4.1e-05 m3/kg. The specific volume (520 K, Liquid, isochoric method) was 0.001879 ± 5e-06 m3/kg, the mass density (528.31 K, 2642 kPa, Gas, isochoric method) was 113.76 ± 1.1 kg/m3 and the “vapor or sublimation pressure” value (528.31 K, Liquid) was 2622 ± 5 kPa. For the same molecule, the specific volume (530 K, Gas, isochoric method) was 0.01351 ± 3.4e-05 m3/kg, the specific volume (530 K, Liquid, isochoric method) was 0.001974 ± 5e-06 m3/kg and the mass density (531.38 K, 2775 kPa, Gas, isochoric method) was 167.7 ± 2.1 kg/m3. For the same molecule, the “vapor or sublimation pressure” value (531.38 K, Liquid) was 2776 ± 5 kPa, the “vapor or sublimation pressure” value (532.65 K, Liquid) was 2804 ± 5 kPa and the mass density (533.03 K, 2834 kPa, Gas, isochoric method) was 203.9 ± 1.8 kg/m3. For the same molecule, the “vapor or sublimation pressure” value (533.03 K, Liquid) was 2834 ± 6 kPa, the “vapor or sublimation pressure” value (533.2 K, Liquid) was 2834 ± 5 kPa and the “vapor or sublimation pressure” value (533.4 K, Liquid) was 2838 ± 5 kPa. The specific volume (533.45 K, Gas, isochoric method) was 0.01243 ± 3.1e-05 m3/kg, the specific volume (533.45 K, Liquid, isochoric method) was 0.002001 ± 5e-06 m3/kg and the “vapor or sublimation pressure” value (537.47 K, Liquid) was 3029 ± 6 kPa. The mass density (539.69 K, 3127 kPa, Gas, isochoric method) was 113.76 ± 6.1 kg/m3, the “vapor or sublimation pressure” value (539.69 K, Liquid) was 3127 ± 6 kPa and the specific volume (540 K, Gas, isochoric method) was 0.01078 ± 2.7e-05 m3/kg. The specific volume (540 K, Liquid, isochoric method) was 0.002103 ± 5e-06 m3/kg, the mass density (540.57 K, Liquid, Isochoric Breaking Point) was 470 ± 1.1 kg/m3 and the “vapor or sublimation pressure” value (541.16 K, Liquid) was 3205 ± 6 kPa. For the same molecule, the “vapor or sublimation pressure” value (541.95 K, Liquid) was 3245 ± 6 kPa, the “vapor or sublimation pressure” value (542.81 K, Liquid) was 3295 ± 6 kPa and the “vapor or sublimation pressure” value (543.19 K, Liquid) was 3293 ± 6 kPa. The mass density (543.3 K, 3315 kPa, Gas, isochoric method) was 113.76 ± 6.4 kg/m3, the “vapor or sublimation pressure” value (543.3 K, Liquid) was 3315 ± 9 kPa and the mass density (543.89 K, 3315 kPa, Gas, isochoric method) was 167.7 ± 5.6 kg/m3. For the same molecule, the “vapor or sublimation pressure” value (543.89 K, Liquid) was 3315 ± 8 kPa, the mass density (546.79 K, 3456 kPa, Gas, isochoric method) was 113.76 ± 4.7 kg/m3 and the “vapor or sublimation pressure” value (546.79 K, Liquid) was 3456 ± 7 kPa. The mass density (547.36 K, Gas, Isochoric Breaking Point) was 113.76 ± 0.31 kg/m3, the mass density (548.15 K, 3531 kPa, Gas, isochoric method) was 113.76 ± 8 kg/m3 and the mass density (548.49 K, 3579 kPa, Gas, isochoric method) was 203.9 ± 8.2 kg/m3. The “vapor or sublimation pressure” value (548.49 K, Liquid) was 3579 ± 7 kPa, the specific volume (550 K, Gas, isochoric method) was 0.008333 ± 2.2e-05 m3/kg and the specific volume (550 K, Liquid, isochoric method) was 0.002288 ± 6e-06 m3/kg. For the same molecule, the mass density (550.05 K, 4256 kPa, Liquid, isochoric method) was 470 ± 1.3 kg/m3, the mass density (550.45 K, 3647 kPa, Gas, isochoric method) was 167.7 ± 3.1 kg/m3 and the “vapor or sublimation pressure” value (550.45 K, Liquid) was 3647 ± 7 kPa. For the same molecule, the mass density (551.66 K, 3610 kPa, Gas, isochoric method) was 113.76 ± 2.8 kg/m3, the mass density (555.53 K, 3893 kPa, Gas, isochoric method) was 167.7 ± 2.9 kg/m3 and the “vapor or sublimation pressure” value (555.53 K, Liquid) was 3983 ± 11 kPa. For the same molecule, the “vapor or sublimation pressure” value (555.6 K, Liquid) was 3945 ± 10 kPa, the mass density (555.7 K, 3941 kPa, Gas, isochoric method) was 203.9 ± 3.3 kg/m3 and the “vapor or sublimation pressure” value (555.7 K, Liquid) was 3941 ± 8 kPa. The “vapor or sublimation pressure” value (556.16 K, Liquid) was 3963 ± 8 kPa, the mass density (557.65 K, 4020 kPa, Gas, isochoric method) was 167.7 ± 1 kg/m3 and the “vapor or sublimation pressure” value (557.65 K, Liquid) was 4075 ± 8 kPa. The mass density (558.64 K, 3788 kPa, Gas, isochoric method) was 113.76 ± 0.83 kg/m3, the mass density (558.65 K, Gas, Isochoric Breaking Point) was 167.7 ± 0.44 kg/m3 and the “vapor or sublimation pressure” value (559.05 K, Liquid) was 4168 ± 8 kPa. For the same molecule, the mass density (559.33 K, 4118 kPa, Gas, isochoric method) was 203.9 ± 1.3 kg/m3, the “vapor or sublimation pressure” value (559.33 K, Liquid) was 4181 ± 8 kPa and the specific volume (560 K, Gas, isochoric method) was 0.005682 ± 1.8e-05 m3/kg. It also gave a specific volume (560 K, Liquid, isochoric method) of 0.002717 ± 7e-06 m3/kg, a specific volume (561 K, Gas, isochoric method) of 0.005319 ± 1.8e-05 m3/kg and a specific volume (561 K, Liquid, isochoric method) of 0.002792 ± 8e-06 m3/kg. It also gave a mass density (561.08 K, Liquid, Isochoric Breaking Point) of 345.9 ± 1.4 kg/m3, a mass density (561.09 K, 6138 kPa, Liquid, isochoric method) of 470 ± 1.3 kg/m3 and a mass density (561.85 K, Gas, Isochoric Breaking Point) of 203.9 ± 0.6 kg/m3. It also gave a specific volume (562 K, Gas, isochoric method) of 0.004879 ± 1.6e-05 m3/kg, a specific volume (562 K, Liquid, isochoric method) of 0.002985 ± 9e-06 m3/kg and a mass density (562.14 K, 4275 kPa, Gas, isochoric method) of 167.7 ± 2.4 kg/m3. For the same molecule, the specific volume (563 K, Gas, isochoric method) was 0.0046 ± 1.4e-05 m3/kg and the specific volume (563 K, Liquid, isochoric method) was 0.003108 ± 8e-06 m3/kg.
